How the values of data set [1] were obtained:
Three dietary treatments were used in this clinical study. […] Sixty kilograms of each diet was prepared, and the drugs were mixed into the diets according to the standard operating procedures of the test facility. After mixing, the diets were cold pelleted (65° C.). The diets were analyzed for their concentration of test article immediately after the mixing and at predetermined intervals thereafter.
Day-old male broiler (Cobb) chicken were obtained from a commercial hatchery. The birds were raised in battery brooders housed in an environmentally controlled room and they received a commercial broiler starter diet from day 1 to 12. The birds were transferred to grower cages on day 12. On day 14, birds were weighed individually and birds with relatively high or low body weights were discarded. A total of 72 birds (of uniform body weight) were chosen and distributed into test groups so that average weights per test group were nearly equal. […] The diets were fed from day 14 to 28 and the animals were slaughtered on Day 29. Feed and water were available ad libitum. […] Mortality was recorded daily.

The subject of a further data set is Cobb broilers. As to the kind of experiment: Safety study in chicken: mortality. Type of data set: in vivo. Particulars: Day 14 to Day 28, Cobb broilers. The procedure: (§1) Three dietary treatments were used in this clinical study. […] After mixing, the diets were cold pelleted (65° C.).
Feed and water were available ad libitum. […] Mortality was recorded daily.

The conditions of data set [2]: cited from earlier work; for Reduction of fat pad: Rehfeldt et al. 1997.
A short description of data set [3]: Reduction of body fat by the isomers of salbutamol. Details: species or system mammals and birds. Particulars: in vivo.
A further data set has as its system smooth muscle. The settings on record: Yamaguchi et al. 1996; cited from earlier work.
Data set [4] is described as follows: Efficacy study in obese young mammals. The settings on record: oral, obese young animals, preliminary results.
Data set [5] can be described thus: Efficacy study in obese adult mammals. Particulars: oral, obese adult animals, preliminary results.
Another data set concerns the target Beta-3 receptor (Homo sapiens, UniProt P13945). The settings on record: results obtained from BRIDGE PHARMA, Inc.; read-out: Affinity for receptor (Ki) Beta-3; cited from earlier work.
Data set [6] in a line: Efficacy study in chicken: abdominal fat pad and body weight gain. The data set is classed as in vivo. The settings on record: for Abdominal fat pad (% BW): day 21 to 42; for Influence on body weight gain (grams): gain during 21 to 42 days of age; for Reduction of fat pads: females; for Decrease of fat pads: males. As for the experimental part: as §1
The birds were transferred to grower cages on day 15 and a commercial broiler finisher diet (18.9% crude protein) was fed. […] Animals (of uniform body weight) were distributed into groups of 24 birds each. (Additional treatment groups than those shown here were used and dosed differently.) Each of the dietary treatments was then randomly assigned to the treatment groups. The diets were fed from day 21 and the animals were slaughtered on Day 42. Feed and water were available ad libitum throughout the study. Body weights were recorded at weekly intervals.

The mark [7] stands for this setting: female broilers, 10 ppm in feed.

Values joined by “and” are separate entries in the source; they are usually repeats but may differ in a detail not shown here. Equal entries are not always repeated. Where two headings read alike, the source gives them in different places.

Chain of Beta-3 receptor (P13945 whole entry): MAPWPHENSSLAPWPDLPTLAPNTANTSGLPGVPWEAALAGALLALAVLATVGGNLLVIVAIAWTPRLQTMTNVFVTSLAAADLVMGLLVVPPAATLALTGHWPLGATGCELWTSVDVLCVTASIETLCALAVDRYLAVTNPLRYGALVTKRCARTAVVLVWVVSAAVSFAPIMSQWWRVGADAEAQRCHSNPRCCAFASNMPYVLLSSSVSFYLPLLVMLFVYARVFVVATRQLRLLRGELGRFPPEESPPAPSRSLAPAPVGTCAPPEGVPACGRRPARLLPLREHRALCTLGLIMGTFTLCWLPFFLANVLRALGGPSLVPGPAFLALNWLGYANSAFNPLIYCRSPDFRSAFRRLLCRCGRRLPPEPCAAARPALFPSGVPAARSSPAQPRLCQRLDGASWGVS

Consider `CC(C)(C)NCC(O)c1ccc(O)c(CO)c1` (racemic) [RS-salbutamol], for which the “Tissue drug concentration” value in data set [1] (racemate-treated animals) turned out to be 61.3 ng/g. Moreover, the “Concentration of total salbutamol in liver” value in data set [1] (treatment 10 ppm RS-salbutamol in feed, Day 14 to Day 28) was 61.3 ng of drug per g of liver. The “Mortality (out of 24 birds)” value in the data set with Cobb broilers (10 ppm in feed) is “caused fatalities and 2/24”.
In the case of `CC(C)(C)NCC(O)c1cc(Cl)c(N)c(Cl)c1` (racemic) [clenbuterol, 4-amino-α-[(tert-butylamino)methyl]-3,5-dichlorobenzyl alcohol], the “Effect on body weights of broiler chicken” value in [2] (Dalrymple et al. 1984) was “increased”. Further, in data set [2] (chicken, Hamano et al. 1998), the “Effect on abdominal fat weight” value is on record as “could not find any effect”. The “Reduction of abdominal fat pad” value is given as 8.5% in [2] (female chicken, Dalrymple et al. 1984) and “did not reduce” in [2] (male chicken, Dalrymple et al. 1984). Also, the entries for the “Reduction of fat pad” value in [2] (female chicken) and in data set [2] (male chicken) were 8.5% and 6.0%, respectively.
`CC(C)(C)NC[C@@H](O)c1ccc(O)c(CO)c1` [S-salbutamol]: in data set [3], the “Reduction of fat content in the bodies of mammals and birds” value is “did not reduce fat”. In the data set with smooth muscle, the Smooth muscle hyperreactivity result was “causes smooth muscle hyperreactivity”.
Turning to “α′[(tert-butylamino) methyl]-4-hydroxy-m-xylene-α,α′-diol [R-salbutamol]”, the “Reduction of fat content in the bodies of mammals and birds” value in data set [3] is “potently and stereoselectively reducing the fat content”. Also, the “Mortality (out of 24 birds)” value in the data set with Cobb broilers (5 ppm in feed) is “no fatalities and 0/24”. Besides, the “Effect on body fat” value in data set [4] and in data set [5] was “significantly decreases body fat” throughout. Besides, the Ki on Beta-3 receptor was more than 10 µM. The “Abdominal fat pad (% BW)” value in data set [6] (female broilers, 5 ppm in feed) is 1.79 % BW; in data set [6] (setting [7]) it was 1.77 % BW; in data set [6] (male broilers, 5 ppm in feed) it was 1.64 % BW; in [6] (male broilers, 10 ppm in feed), 1.63 % BW. For the same compound, the “Influence on body weight gain (grams)” value in data set [6] (female broilers, 5 ppm in feed) worked out at 1646 grams; in data set [6] (setting [7]), 1614 grams; in data set [6] (male broilers, 5 ppm in feed) it was 1886 grams; in [6] (male broilers, 10 ppm in feed), 1887 grams. In addition, the “Reduction of fat pads” value is given as 19.4% in data set [6] (5 ppm) and 20.3% in data set [6] (10 ppm). The “Decrease of fat pads” value is recorded as 17.2% in data set [6] (5 ppm) and 17.7% in data set [6] (10 ppm).

As a reminder, the Ki is a dissociation constant, usually derived from enzyme kinetics or from competition with a known ligand.

The record behind these values is patent US20050113456A1, “Method of decreasing fat deposits and body weight in mammals and birds” (priority 2003, published 2005).
